Results taken from article PMC8494430, “Development of a fluorogenic ADAMTS-7 substrate” (Journal of Enzyme Inhibition and Medicinal Chemistry, 2021).

Biological target: T1, ADAMTS-1 (Homo sapiens, UniProt Q9UHI8)
T1 construct: made in house
T1 sequence (Q9UHI8 253-967): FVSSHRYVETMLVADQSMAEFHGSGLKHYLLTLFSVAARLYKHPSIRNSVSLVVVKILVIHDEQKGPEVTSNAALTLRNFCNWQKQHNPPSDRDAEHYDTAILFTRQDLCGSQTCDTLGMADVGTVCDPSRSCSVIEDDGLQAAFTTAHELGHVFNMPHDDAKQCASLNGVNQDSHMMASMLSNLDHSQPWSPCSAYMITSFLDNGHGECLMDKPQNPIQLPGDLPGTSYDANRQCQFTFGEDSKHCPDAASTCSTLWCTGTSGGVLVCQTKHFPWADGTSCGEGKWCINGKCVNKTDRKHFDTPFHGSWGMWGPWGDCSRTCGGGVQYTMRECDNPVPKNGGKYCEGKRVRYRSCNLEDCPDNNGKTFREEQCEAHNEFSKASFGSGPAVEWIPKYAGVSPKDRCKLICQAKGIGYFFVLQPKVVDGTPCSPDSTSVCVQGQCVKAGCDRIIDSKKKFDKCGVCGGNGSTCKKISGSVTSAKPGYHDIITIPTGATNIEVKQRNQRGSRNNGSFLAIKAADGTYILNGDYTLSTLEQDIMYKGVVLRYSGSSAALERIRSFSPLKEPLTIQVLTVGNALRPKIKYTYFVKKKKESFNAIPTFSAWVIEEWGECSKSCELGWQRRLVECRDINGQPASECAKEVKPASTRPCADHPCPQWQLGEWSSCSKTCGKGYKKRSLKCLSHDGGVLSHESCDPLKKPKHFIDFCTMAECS
Experiment: Cleavage of ATS7FP7 by ADAMTS-1
Format: biochemical
Conditions: ADAMTS-1 10 nM, ATS7FP7 40 μM
Method: All enzyme assays were conducted in TNC-B buffer (50 mM Tris- HCl, pH 7.5, 150 mM NaCl, 10 mM CaCl2, and 0.02% NaN3) at 37 °C in 384 well plates (Cat. No: 784900, Greiner Bio-One, Austria). To avoid the formation of inhibitor or peptide aggregates, the detergent Brij-35 (0.05%) was added to TNC-B[13]. For inhibition studies, stock solutions of chemical compounds were prepared in dimethyl sulfoxide (DMSO) (10 mM). These were further diluted at different concentrations in TNC-B and incubated with ADAMTS-1, ADAMTS-4, ADAMTS-5, ADAMTS-7 or ADAMTS-8 (10 nM) for 1 h at 37 °C. Blank samples were prepared using buffer only and the rate of cleavage for blank reactions was subtracted from the rates measured in the presence of enzyme. Upon addition of the indicated ADAMTS-7 FRET substrates (40 µM), the fluorescence was measured immediately using a FLUOstar Omega microplate reader (BMG Labtech, Germany) with an excitation filter wavelength of 485 nm and an emission filter wavelength of 520 nm.
Supplementary Figure 6: Cleavage of ATS7FP7 by members of the ADAMTS family. A) ATS7FP7 (40 μM) was incubated either with ADAMTS-1, -4, -5, -7, or -8 (10 nM). Fluorescence was detected (λex = 485 nm, λem = 520 nm) for 8 h at 37°C and reported as relative fluorescence units (RFU). The data are presented as average ± SEM (n=3) and were fitted with a linear regression. […]

Glu-Ala-Ala-Ala-Arg↓Ala-Glu↓Ala-Ala-Ala-Lys [ATS7FP7]
cleavage by ADAMTS-1: neither ADAMTS-1 nor ADAMTS-8 were able to cleave ATS7FP7
